Counter-ions that a name gives are not always drawn.

The values that follow come from patent US20090216029A1, “PROCESS FOR THE PRODUCTION OF ATORVASTATIN CALCIUM IN AMORPHOUS FORM” (priority 2008, published 2009).

The conditions of this data set: 25° C./60% relative humidity for 3 months.

Protocol: • HPLC method: • Column: Kromasil C18, 250×4.6 mm, 5 μm • Mobile phase: • A: 388.5 ml of acetonitrile+31.5 ml of tetrahydrofuran++580 ml of 0.05 molar ammonium dihydrogen orthophosphate solution in water • B: 92.5 ml of acetonitrile+7.5 ml of tetrahydrofuran+300 of methanol++100 ml of 0.05 molar ammonium dihydrogen orthophosphate solution in water • Gradient:

On to `CC(C)c1c(C(=O)Nc2ccccc2)c(-c2ccccc2)c(-c2ccc(F)cc2)n1CC[C@@H](O)C[C@@H](O)CC(=O)O` (relative stereo) [amorphous atorvastatin calcium, [R—(R*,R*)]-2-(4-fluorophenyl)-β,δ-dihydroxy-5-(1-methylethyl)-3-phenyl-4-[(phenylamino)carbonyl]-1H-pyrrole-1-heptanoic acid, calcium salt (2:1)], for which the “Total impurities and/or degradants after storage” value was “not more than 1.0%”.
